# Read-outs that look alike come from different tables or passages of the source.
# What was measured:
# [1] = tested on: NMuMG cells; test: High-content microscopy EMT screen in TGFβ-treated NMuMG cells (FA, SF, FN, cell count); format: cell-based, murine
# [2] = target: ROCK1 (Homo sapiens, UniProt Q13464); test: Biochemical kinase profiling (33PanQinase radiometric assay)
# [3] = target: ROCK2 (Homo sapiens, UniProt O75116); test: as above
# [4] = target: FGFR1 (Homo sapiens, UniProt P11362); test: as above; conditions: read-out: FGFR1 IC50; ATP at apparent Km
# [5] = target: FGFR2 (Homo sapiens, UniProt P21802); test: as above; conditions: read-out: FGFR2 IC50; ATP at apparent Km
# [6] = target: FGFR3 (Homo sapiens, UniProt P22607); test: as above; conditions: read-out: FGFR3 IC50; ATP at apparent Km
# [7] = target: FGFR4 (Homo sapiens, UniProt P22455); test: as above
# [8] = target: T1, TGFBR1 (Homo sapiens, UniProt P36897); test: as above
# T1 sequence (P36897 34-503): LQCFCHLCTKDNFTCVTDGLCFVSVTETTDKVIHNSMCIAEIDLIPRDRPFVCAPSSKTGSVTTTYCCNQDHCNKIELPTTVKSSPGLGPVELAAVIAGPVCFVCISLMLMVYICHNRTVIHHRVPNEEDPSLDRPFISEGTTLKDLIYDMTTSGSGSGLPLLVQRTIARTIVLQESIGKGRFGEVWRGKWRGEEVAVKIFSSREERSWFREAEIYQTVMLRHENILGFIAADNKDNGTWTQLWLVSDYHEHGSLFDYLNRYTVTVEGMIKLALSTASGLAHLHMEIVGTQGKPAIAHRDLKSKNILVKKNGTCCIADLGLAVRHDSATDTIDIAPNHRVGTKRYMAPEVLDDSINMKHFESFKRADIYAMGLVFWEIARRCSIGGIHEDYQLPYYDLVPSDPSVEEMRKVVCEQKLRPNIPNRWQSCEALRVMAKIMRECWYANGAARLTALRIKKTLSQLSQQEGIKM
# [9] = target: TGFBR2 (Homo sapiens, UniProt P37173); test: as above
# [10] = target: PDGFRA (Homo sapiens, UniProt P16234); test: as above
# [11] = target: PDGFRB (Homo sapiens, UniProt P09619); test: as above
# [12] = target: SRC (Homo sapiens, UniProt P12931); test: as above
# [13] = tested on: Py2T cells; test: High-content microscopy EMT assay in TGFβ-treated Py2T breast cancer cells; format: cell-based, murine
# [14] = tested on: ROCK; test: ROCK cellular assay (MLC Thr18/Ser19 phosphorylation ELISA in A7r5 cells); format: cell-based, rat; conditions: 90 min compound
# [15] = NMuMG, TGFβ1 2 ng/ml plus compound, 4 days; parameter decreased by 50%
# [16] = NMuMG; cell count decreased by 50% compared to DMSO control; read-out: Tox IC50
# [17] = NMuMG; compared to reference 10 μM SB-431542 = 100%
# [18] = read-out: FGFR4 IC50, ATP at apparent Km
# [19] = read-out: TGFBR1 IC50, ATP at apparent Km
# [20] = read-out: TGFBR2 IC50, ATP at apparent Km
# [21] = Mus musculus; NMuMG; cell count decreased by 50% compared to DMSO control; read-out: Tox IC50
# [22] = NMuMG, TGFβ1 2 ng/ml plus compound, 4 days; parameter decreased by 50%; read-out: FA IC50 (focal adhesion formation)
# [23] = NMuMG, TGFβ1 2 ng/ml plus compound, 4 days; parameter decreased by 50%; read-out: FN IC50 (fibronectin patch formation)
# [24] = NMuMG, TGFβ1 2 ng/ml plus compound, 4 days; parameter decreased by 50%; read-out: SF IC50 (stress fibers)
# [25] = NMuMG; cell count increased by 50% compared to 100% with 10 μM SB-431542; read-out: CCI IC50 (cell count increase)
# [26] = read-out: PDGFRA IC50, ATP at apparent Km
# [27] = read-out: PDGFRB IC50, ATP at apparent Km
# [28] = Mus musculus, 96 h; NMuMG, TGFβ1 2 ng/ml plus compound, 4 days; parameter decreased by 50%; read-out: FA IC50 (focal adhesion formation)
# [29] = Mus musculus, 96 h; NMuMG, TGFβ1 2 ng/ml plus compound, 4 days; parameter decreased by 50%; read-out: FN IC50 (fibronectin patch formation)
# [30] = Mus musculus, 96 h; NMuMG, TGFβ1 2 ng/ml plus compound, 4 days; parameter decreased by 50%; read-out: SF IC50 (stress fibers)
# [31] = Mus musculus, read-out: CCI IC50 (cell count increase)
# [32] = Mus musculus, read-out: Emax (maximal effect on cell count)
# [33] = Mus musculus; NMuMG; mean of IC50 values obtained for FA, SF, FN; read-out: EMT (FA/SF/FN) combined IC50
# [34] = Mus musculus; read-out: CCI IC50 (cell count increase)
# [35] = Mus musculus; read-out: Emax (maximal effect on cell count)
# Sequence of PDGFRA (P16234 24-1089): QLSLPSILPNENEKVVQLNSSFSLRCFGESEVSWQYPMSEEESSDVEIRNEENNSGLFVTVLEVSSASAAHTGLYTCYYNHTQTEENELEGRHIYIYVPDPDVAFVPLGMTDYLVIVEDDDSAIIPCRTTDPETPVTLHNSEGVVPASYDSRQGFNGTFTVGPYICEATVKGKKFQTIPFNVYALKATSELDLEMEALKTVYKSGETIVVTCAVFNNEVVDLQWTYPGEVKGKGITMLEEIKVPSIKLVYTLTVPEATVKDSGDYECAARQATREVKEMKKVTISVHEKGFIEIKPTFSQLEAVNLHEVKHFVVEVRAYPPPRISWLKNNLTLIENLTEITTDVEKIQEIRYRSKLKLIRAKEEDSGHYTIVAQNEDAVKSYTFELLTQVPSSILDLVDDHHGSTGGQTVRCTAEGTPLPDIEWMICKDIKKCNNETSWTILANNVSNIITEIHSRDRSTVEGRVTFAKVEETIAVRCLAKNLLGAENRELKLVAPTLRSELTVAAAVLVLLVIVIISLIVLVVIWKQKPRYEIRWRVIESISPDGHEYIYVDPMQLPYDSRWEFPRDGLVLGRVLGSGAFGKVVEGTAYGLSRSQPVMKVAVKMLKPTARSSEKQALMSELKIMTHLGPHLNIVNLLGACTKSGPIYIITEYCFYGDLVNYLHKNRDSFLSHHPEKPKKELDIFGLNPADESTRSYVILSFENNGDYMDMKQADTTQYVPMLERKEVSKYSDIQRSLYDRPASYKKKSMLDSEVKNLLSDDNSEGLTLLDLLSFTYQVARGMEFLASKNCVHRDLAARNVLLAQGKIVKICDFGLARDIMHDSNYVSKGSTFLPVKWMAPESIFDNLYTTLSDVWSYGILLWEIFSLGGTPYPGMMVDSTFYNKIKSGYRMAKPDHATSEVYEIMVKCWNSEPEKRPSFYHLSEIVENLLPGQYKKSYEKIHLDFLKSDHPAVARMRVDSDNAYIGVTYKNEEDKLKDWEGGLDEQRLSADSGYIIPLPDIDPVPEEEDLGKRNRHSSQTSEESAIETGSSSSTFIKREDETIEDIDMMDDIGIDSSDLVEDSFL
# Sequence of PDGFRB (P09619 33-1106): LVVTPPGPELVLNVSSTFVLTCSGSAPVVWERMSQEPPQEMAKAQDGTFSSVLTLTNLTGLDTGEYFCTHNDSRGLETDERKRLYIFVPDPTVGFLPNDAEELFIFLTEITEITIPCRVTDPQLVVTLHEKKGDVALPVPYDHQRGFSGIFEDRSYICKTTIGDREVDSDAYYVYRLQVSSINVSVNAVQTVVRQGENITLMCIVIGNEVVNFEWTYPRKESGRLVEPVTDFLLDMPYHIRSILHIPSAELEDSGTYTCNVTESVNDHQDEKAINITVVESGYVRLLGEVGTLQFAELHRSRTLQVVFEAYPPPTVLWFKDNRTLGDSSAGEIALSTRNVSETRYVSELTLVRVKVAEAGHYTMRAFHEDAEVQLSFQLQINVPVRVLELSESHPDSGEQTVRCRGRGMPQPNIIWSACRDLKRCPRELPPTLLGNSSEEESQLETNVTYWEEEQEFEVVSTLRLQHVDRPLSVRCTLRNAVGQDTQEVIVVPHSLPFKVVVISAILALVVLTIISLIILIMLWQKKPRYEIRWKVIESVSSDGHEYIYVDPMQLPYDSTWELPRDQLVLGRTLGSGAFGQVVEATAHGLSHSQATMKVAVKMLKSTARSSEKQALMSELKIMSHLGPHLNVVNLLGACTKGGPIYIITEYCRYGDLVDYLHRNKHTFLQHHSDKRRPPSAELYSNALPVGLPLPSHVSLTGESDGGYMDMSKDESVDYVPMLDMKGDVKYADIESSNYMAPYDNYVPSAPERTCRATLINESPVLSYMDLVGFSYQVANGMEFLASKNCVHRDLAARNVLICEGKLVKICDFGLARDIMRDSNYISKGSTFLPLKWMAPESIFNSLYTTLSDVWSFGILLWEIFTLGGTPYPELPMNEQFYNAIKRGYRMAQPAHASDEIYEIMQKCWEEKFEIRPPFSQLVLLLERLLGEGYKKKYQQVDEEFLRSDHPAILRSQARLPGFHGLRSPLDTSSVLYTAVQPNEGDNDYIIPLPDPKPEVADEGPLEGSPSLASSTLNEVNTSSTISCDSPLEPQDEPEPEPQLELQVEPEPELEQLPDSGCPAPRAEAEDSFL
# Sequence of ROCK2 (O75116 whole entry): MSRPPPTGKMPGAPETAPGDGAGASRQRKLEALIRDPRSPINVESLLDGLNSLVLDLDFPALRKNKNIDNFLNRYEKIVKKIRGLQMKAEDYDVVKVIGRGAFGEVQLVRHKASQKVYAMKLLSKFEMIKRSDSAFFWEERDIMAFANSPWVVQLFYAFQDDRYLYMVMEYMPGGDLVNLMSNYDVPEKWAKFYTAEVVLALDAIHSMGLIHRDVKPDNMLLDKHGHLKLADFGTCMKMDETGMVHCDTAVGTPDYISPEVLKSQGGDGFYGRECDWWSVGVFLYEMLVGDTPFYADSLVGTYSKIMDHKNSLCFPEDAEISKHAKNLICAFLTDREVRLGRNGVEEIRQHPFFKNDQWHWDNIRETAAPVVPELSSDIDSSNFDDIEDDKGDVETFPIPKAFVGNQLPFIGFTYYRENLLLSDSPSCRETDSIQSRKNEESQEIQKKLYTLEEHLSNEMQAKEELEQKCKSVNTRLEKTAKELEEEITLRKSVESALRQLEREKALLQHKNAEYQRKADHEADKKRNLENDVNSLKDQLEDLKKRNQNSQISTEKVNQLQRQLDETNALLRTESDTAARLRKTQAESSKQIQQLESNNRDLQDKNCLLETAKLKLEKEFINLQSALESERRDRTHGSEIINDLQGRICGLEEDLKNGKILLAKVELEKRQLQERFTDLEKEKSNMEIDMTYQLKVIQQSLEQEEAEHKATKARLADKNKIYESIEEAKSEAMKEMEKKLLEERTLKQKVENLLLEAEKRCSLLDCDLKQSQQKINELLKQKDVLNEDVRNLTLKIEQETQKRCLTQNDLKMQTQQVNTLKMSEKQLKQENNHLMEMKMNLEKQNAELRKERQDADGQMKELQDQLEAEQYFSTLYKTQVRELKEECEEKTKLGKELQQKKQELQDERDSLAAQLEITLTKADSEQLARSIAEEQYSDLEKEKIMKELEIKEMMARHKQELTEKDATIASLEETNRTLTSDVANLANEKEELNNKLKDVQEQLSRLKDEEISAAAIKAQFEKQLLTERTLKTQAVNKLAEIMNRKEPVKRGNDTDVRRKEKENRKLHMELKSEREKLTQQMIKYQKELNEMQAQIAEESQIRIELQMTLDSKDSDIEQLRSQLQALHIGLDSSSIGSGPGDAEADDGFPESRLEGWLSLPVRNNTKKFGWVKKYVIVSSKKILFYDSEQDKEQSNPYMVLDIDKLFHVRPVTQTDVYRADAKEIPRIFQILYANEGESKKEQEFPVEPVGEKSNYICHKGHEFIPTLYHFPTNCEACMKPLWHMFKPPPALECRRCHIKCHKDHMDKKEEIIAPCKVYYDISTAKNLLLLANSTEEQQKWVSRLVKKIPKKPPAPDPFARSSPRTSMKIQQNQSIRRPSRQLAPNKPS
# Sequence of FGFR2 (P21802 22-821): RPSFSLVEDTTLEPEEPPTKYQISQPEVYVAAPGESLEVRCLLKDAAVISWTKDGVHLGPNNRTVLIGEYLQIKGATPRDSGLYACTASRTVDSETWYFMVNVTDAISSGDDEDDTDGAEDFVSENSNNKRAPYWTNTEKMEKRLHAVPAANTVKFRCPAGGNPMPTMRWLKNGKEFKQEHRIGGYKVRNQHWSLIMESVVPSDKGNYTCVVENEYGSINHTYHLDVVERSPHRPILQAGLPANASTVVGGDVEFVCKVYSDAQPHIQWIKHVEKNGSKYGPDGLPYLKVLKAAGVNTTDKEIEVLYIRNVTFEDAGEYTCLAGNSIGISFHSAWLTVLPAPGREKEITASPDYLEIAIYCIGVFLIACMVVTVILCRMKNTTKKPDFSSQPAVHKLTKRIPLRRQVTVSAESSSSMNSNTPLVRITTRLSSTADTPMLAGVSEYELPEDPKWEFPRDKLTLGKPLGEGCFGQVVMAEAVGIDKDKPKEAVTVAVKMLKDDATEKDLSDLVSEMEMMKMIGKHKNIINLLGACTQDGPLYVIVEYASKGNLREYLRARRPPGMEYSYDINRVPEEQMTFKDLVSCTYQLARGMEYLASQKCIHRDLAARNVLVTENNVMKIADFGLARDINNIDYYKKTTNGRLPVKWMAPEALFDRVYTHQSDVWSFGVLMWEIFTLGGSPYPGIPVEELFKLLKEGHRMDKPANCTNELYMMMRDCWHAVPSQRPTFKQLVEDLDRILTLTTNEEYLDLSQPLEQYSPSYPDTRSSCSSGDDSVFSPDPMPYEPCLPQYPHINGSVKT
# Sequence of FGFR4 (P22455 22-802): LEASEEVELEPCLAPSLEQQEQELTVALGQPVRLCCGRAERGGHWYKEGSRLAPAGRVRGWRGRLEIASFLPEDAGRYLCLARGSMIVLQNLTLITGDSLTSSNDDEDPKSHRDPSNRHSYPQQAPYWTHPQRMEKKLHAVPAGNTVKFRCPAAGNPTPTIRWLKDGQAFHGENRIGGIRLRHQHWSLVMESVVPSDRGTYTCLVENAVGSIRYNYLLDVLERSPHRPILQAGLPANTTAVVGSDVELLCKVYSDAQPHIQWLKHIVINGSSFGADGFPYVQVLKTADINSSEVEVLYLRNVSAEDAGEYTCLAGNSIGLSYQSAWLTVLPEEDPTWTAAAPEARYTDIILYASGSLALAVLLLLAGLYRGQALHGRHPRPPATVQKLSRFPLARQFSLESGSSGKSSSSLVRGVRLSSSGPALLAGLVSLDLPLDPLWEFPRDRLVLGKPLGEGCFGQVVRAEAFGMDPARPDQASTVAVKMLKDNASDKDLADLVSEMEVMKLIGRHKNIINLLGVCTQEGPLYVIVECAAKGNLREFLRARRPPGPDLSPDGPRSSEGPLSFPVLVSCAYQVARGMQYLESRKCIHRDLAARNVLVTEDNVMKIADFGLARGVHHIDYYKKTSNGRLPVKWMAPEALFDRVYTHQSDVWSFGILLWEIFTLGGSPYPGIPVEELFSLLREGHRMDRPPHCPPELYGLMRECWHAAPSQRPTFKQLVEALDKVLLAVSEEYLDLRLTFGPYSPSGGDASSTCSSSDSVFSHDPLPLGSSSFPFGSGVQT
IC50 [5] [nM],"IC50 [7, 18] [nM]","IC50 [8, 19] [nM]","IC50 [9, 20] [nM]",SMILES,"FA IC50 (focal adhesion formation) [1, 15]","FN IC50 (fibronectin patch formation) [1, 15]","SF IC50 (stress fibers) [1, 15]","IC50 [1, 16] [nM]","Emax (maximal effect on cell count) [1, 17]","IC50 [1, 21] [nM]",IC50 [3] [nM],"IC50 [1, 22] [nM]","IC50 [1, 23] [nM]","IC50 [1, 24] [nM]","IC50 [1, 25] [nM]","IC50 [10, 26] [nM]","IC50 [11, 27] [nM]","IC50 [1, 28] [nM]","IC50 [1, 29] [nM]","IC50 [1, 30] [nM]",further results
10.2,492,> 10000,> 10000,COc1cc(OC)cc(-c2cc3cnc(N)nc3nc2NC(=O)NC(C)(C)C)c1 [PD-166866],n.m.,n.m.,n.m.,3360,n.m.,,,,,,,,,,,,"CCI IC50 (cell count increase) ([1]; NMuMG; cell count increased by 50% compared to 100% with 10 μM SB-431542): n.m.; IC50 ([2]; read-out: ROCK1 IC50, ATP at apparent Km): > 10000 nM; IC50 ([3]; read-out: ROCK2 IC50, ATP at apparent Km): > 10000 nM; IC50 [4]: 22.5 nM; IC50 [6]: 49.3 nM"
456,622,297,1310,Cc1ccc(-c2nn(C(C)(C)C)c3ncnc(N)c23)cc1 [PP1],,,,11400,22.3%,,,910,1520,1140,374,3690,132,,,,"IC50 ([1]; NMuMG; mean of IC50 values obtained for FA, SF, FN; read-out: EMT (FA/SF/FN) combined IC50): 1190 nM"

# Further lines, the compound ahead of its results:
SMILES,IC50 [5] [nM],"IC50 [7, 18] [nM]","IC50 [8, 19] [nM]","IC50 [9, 20] [nM]","FA IC50 (focal adhesion formation) [1, 15]","FN IC50 (fibronectin patch formation) [1, 15]","SF IC50 (stress fibers) [1, 15]","IC50 [1, 16] [nM]","Emax (maximal effect on cell count) [1, 17]","IC50 [1, 21] [nM]",IC50 [3] [nM],"IC50 [1, 22] [nM]","IC50 [1, 23] [nM]","IC50 [1, 24] [nM]","IC50 [1, 25] [nM]","IC50 [10, 26] [nM]","IC50 [11, 27] [nM]","IC50 [1, 28] [nM]","IC50 [1, 29] [nM]","IC50 [1, 30] [nM]",further results
CCN(CC)CCCCNc1ncc2cc(-c3cc(OC)cc(OC)c3)c(NC(=O)NC(C)(C)C)nc2n1 [PD-173074],,,,,n.m.,n.m.,n.m.,,,3220,> 10000,,,,,,,,,,Emax (maximal effect on cell count) [1]: n.m.; IC50 [2]: > 10000 nM; IC50 [7]: 418 nM; IC50 [10]: > 10000 nM; IC50 [11]: 3390 nM; IC50 [12]: 6730 nM; IC50 [8]: > 10000 nM; IC50 [9]: > 10000 nM
CCn1c(-c2nonc2N)nc2cncc(C(=O)N3CC[C@H](N)C3)c21 [SB-772077B],,,,,,,,,,5330,,,,,,,,51,54,29,"IC50 [1, 31]: 50.5 nM; Emax [1, 32]: 30.5%; IC50 [1, 33]: 44.7 nM; IC50 [13, 31]: 28.4 nM; Emax [13, 32]: 63.6%; IC50 ([13]; Mus musculus, read-out: Tox IC50): 1960 nM; IC50 ([14]; Rattus norvegicus, 1.5 h): 28 nM"
CN(C)CCOc1cc(-c2cn[nH]c2)ccc1NC(=O)C1COc2ccccc2O1 (centres unmarked) [SR-3677],,,,,,,,,,> 25000,76,,,,,,,160,179,31,"IC50 [1, 33]: 123 nM; IC50 [1, 34]: 50.6 nM; Emax [1, 35]: 34.7%; IC50 ([13]; Mus musculus, 96 h; Py2T, TGFβ plus compound, 4 days; read-out: FA IC50 (focal adhesions)): 415 nM; IC50 ([13]; Mus musculus, 96 h; Py2T, TGFβ plus compound, 4 days; read-out: FN IC50 (fibronectin patches)): 521 nM; IC50 ([13]; Mus musculus, 96 h; Py2T, TGFβ plus compound, 4 days; read-out: SF IC50 (stress fibers)): 89 nM; IC50 ([13]; Mus musculus; Py2T; cell count decreased by 50% compared to DMSO control; read-out: Tox IC50): 6810 nM; IC50 [13, 34]: 15 nM; Emax [13, 35]: 51%"
Cc1[nH]c(/C=C2\C(=O)Nc3ccccc32)c(C)c1CCC(=O)O [TSU-68],590,,> 10000,> 10000,,,,> 10000,1.7%,,,> 10000,> 10000,> 10000,> 10000,78.2,103,,,,IC50 [14]: > 10000 nM
